Patent US9572882B2, “Compositions and methods for improving cardiovascular function” (RiboCor, INC., priority 2000, dated 2017)
“Also recorded” adds a separate entry of the source. Read-outs that look alike come from different tables or passages of the source.

What was measured:
congestive heart failure = conditions: 4 weeks of supplementation (Azuma et al 1983); cited from earlier work
[1] = tested on: patients with heart failure; patients with angina; conditions: cited from earlier work
[2] = tested on: subject with borderline blood pressure; experiment: Blood pressure in one subject with borderline hypertension given ribose; assay type: in vivo, human
Source text: As shown in Example 1, treatment with ribose improves diastolic cardiac function. Since hypertension is accompanied by left ventricular dysfunction, it is expected that the administration of ribose to patients experiencing hypertension with result in a benefit. One subject has been tested. Their blood pressure has been tested at borderline values of 130/90. Following daily administration of ribose at 5-10 grams per day, their blood pressure was lowered to as low as 108/78.

[3] = tested on: patients with chronic coronary artery disease with stable angina pectoris and chronic heart failure, class II and III; experiment: Transthoracic echocardiography in double-blinded, randomized, crossover clinical study of ribose vs placebo; assay type: in vivo, human; conditions: oral
Source text: (§1) A double-blinded, randomized, crossover clinical study was initiated to determine whether patients with cardiovascular disease could find a ribose benefit at lower, safer doses. Patients with known chronic coronary artery disease with stable angina pectoris and chronic heart failure, class II and III (New York Classification, NYHA) were selected for the study. […] All patients were being treated with nitrates, molsidim and beta blockers. Three patients were also on diltiazem and an additional three on trapidil. Medications were not altered during the study. Exclusion criteria included patients <18 years of age, those with severe concurrent disease (renal failure, diabetes mellitus, neoplasia), evidence of hyperthyroidism and inability to follow the protocol.
The study consisted of two treatment periods, three weeks in duration. Initially, either ribose or placebo (dextrose) was administered three times a day with meals. Five grams of either ribose of or placebo was dissolved in approximately eight ounces of fluid shortly before administration. Following the initial treatment period, the patients were given no ribose or placebo treatment for one week as a washout period. The patients were then given the alternate treatment for three weeks for the crossover phase of the study.
Measured objectives parameters of systolic and diastolic function were assessed with transthoracic echocardiography. Subjectively, quality of life using the SF36 form, and physical function (exercise tolerance) were assessed. All of the above parameters were assessed at pre- and post-treatment in both arms of the study.
Each echocardiographic assessment was performed by the same clinical individual and accumulated data were analyzed by two cardiologists in a blinded manner, with a consensus establishing a final result. All studies were conducted with commercially available equipment (System V, GE, Norway). To allow off-line quantitative analysis of the echocardiographic data, studies were recorded on videotape with selected cine-loops and velocity spectra digitally transferred to a Macintosh G4 computer (Apple Computers, CA) for subsequent analysis. Software provided by the manufacturer (Echopac®, GE, Norway) was used for data evaluation.
Each echocardiographic assessment was performed transthoracically and a 1.7/3.4 MHZ harmonic transducer was used with the patient examined in the left lateral decubitus position. A one-lead electrocardiogram was recorded continuously during echocardiographic assessment. The M-Mode left atrial dimension was measured at end-systole in the parasternal long-axis view and left ventricular ejection fraction was determined according to the recommendations of the North American Society of Echocardiography. In addition, left atrial volume was determined using the Simpson's rule in the 4 chamber view. Transmitral Doppler inflow velocities were recorded from the apical four-chamber view with the sample volume positioned between the tips of the mitral leaflets during quiet respiration.
The parameters derived from the transmitral velocity spectra were: peak velocity of the early (E) and atrial filling (A) waves, the corresponding velocity time integrals (VTIE and VTIA and the percentage of atrial contribution to total left ventricular filling. The deceleration slope of the E wave was also measured. The percentage of atrial contribution to total left ventricular filling was determined by dividing the VTIA by the total diastolic velocity time integral. The results of five consecutive heart cycles were averaged in each patient to obtain a justified value.
Analysis of variance for repeated measures (ANOVA) was used for the analysis of serial changes of continuous parameters within and between the randomized, assigned treatment arms, i.e. ribose vs placebo. Further comparison were subject to Bonferroni correction. In all cases, a p value s 0.05 was considered statistically significant.

[4] = tested on: patients with cardiovascular disease; athletes; conditions: cited from earlier work
[5] = tested on: patients with chronic coronary artery disease and chronic heart failure; experiment: Semi-upright bicycle exercise test in the crossover study; assay type: in vivo, human; conditions: beginning vs end of the treatment period
Source text: as §1, with “protocol. The study consisted of two treatment periods, three weeks in duration. Initially, either ribose or placebo (dextrose) was administered three times a day with meals. Five grams of either ribose of or placebo was dissolved in approximately eight ounces of fluid shortly before administration. Following the initial treatment period, the patients were given no ribose or placebo treatment for one week as a washout period. […] Rate pressure product (RPP) was calculated using systolic blood pressure times heart rate and expressed in RPP units.” for “protocol.”

[6] = tested on: patients with chronic coronary artery disease and chronic heart failure; experiment: Quality of life (SF 36 form) and physical function in the crossover study; assay type: in vivo, human; conditions: oral, 5 g three times a day for three weeks
Source text: as §1, with “protocol. The study consisted of two treatment periods, three weeks in duration. Initially, either ribose or placebo (dextrose) was administered three times a day with meals. […] Measured objectives parameters of systolic and diastolic function were assessed with transthoracic echocardiography. Subjectively, quality of life using the SF36 form, and physical function (exercise tolerance) were assessed. All of the above parameters were assessed at pre- and post-treatment in both arms of the study. Quality of life was assessed in each patient using the SF 36 form. […]” for “protocol.”

plasma homocysteine = conditions: cited from earlier work
[7] = 5 g three times a day for three weeks
[8] = 5 g three times a day for three weeks, p ≦ .005 vs dextrose placebo

## NCCS(=O)(=O)O [taurine]
Congestive heart failure
  dyspnea, palpitation, crackles, edema, and New York Heart Association functional class: highly significant improvement

## N=C(N)NCCC[C@H](N)C(=O)O [arginine, L-arginine]
[1]; 5.6 to 12.6 g/day supplemental (Rector et al 1996)
  benefits for patients with heart failure: increased blood flow, increased distances in a 6-minute walk test, and improved arterial compliance
[1]; oral, 6 g/day for 3 days (Ceremuzynski et al 1997)
  exercise capacity in patients with angina: improved

## O=C[C@H](O)[C@H](O)[C@H](O)CO [Ribose, D-Ribose]
[2]; further studies, expected
  pressure-lowering effects in further studies: expected to confirm the pressure-lowering effects
[2]; one subject, borderline values of 130/90 before, 5-10 grams per day daily
  blood pressure after ribose: 108/78
[3]; [7]
  atrial contribution to left ventricular filling as compared to placebo: higher
  deceleration time of the E wave as compared to placebo: significant shorter
  ejection fraction (EF): 51.0 ± 7.3%
  left atria volume as compared to placebo: significantly smaller
[3]; 5 g three times a day for three weeks, p < .01 vs dextrose placebo
  atrial contribution (Ac): 45.3 ± 9.2 &
[3]; [8]
  deceleration time of the E wave (Edc): 193.5 ± 45.9 ms
  left ventricular systolic volume (LVVs): 64.4 ± 24.8 mL
  stroke volume index (SVI): 2.63 ± .57 ml/body mass index
[3]; relatively short term, severe coronary artery disease and congestive heart failure
  diastolic cardiac function: significantly improved
[4]; 60 grams daily in four 15 gram doses for three days (Pliml 1992)
  benefit to patients with cardiovascular disease: benefited
[4]; 60 grams daily in four 15 gram doses
  side effects: hypoglycemia with concomitant dizziness, nausea and sweating; also recorded: abdominal distress and diarrhea
[4]; orally administered high doses (Pliml et al 1992)
  treadmill performance of angina patients: increased
[4]; supplemental ribose (U.S. Pat. No. 6,159,942)
  power output of athletes on exercise bikes: greater
[5]
  mean maximal attained exercise level: not changed
[6]; SF 36 form
  overall score of the quality of life index: significant improvement; also recorded: enhanced
[6]
  physical function: significant improvement

## Nc1nc2ncc(CNc3ccc(C(=O)N[C@@H](CCC(=O)O)C(=O)O)cc3)nc2c(=O)[nH]1 [Folic acid]
Plasma homocysteine; 250 pg/d dose (Brouwer et al. 1999)
  reduction of plasma homocysteine levels: 11%
Plasma homocysteine; 300 pg/d in healthy individuals over 5 weeks (Mansoor)
  reduction of plasma homocysteine levels: 20%
Plasma homocysteine; 300 pg/day plus 120 mg/day of vitamin B6 (Mansoor)
  reduction of plasma homocysteine: 32%
Plasma homocysteine; 500 pg/d dose (Brouwer et al. 1999)
  reduction of plasma homocysteine levels: 22%
